What all share (assay type): cell-based
One assay concerns the target T1, Alpha 2B (Homo sapiens, UniProt P18089).
T1 construct: expressed in transfected cells; host or cells: NIH-3T3
T1 sequence (P18089 1-450): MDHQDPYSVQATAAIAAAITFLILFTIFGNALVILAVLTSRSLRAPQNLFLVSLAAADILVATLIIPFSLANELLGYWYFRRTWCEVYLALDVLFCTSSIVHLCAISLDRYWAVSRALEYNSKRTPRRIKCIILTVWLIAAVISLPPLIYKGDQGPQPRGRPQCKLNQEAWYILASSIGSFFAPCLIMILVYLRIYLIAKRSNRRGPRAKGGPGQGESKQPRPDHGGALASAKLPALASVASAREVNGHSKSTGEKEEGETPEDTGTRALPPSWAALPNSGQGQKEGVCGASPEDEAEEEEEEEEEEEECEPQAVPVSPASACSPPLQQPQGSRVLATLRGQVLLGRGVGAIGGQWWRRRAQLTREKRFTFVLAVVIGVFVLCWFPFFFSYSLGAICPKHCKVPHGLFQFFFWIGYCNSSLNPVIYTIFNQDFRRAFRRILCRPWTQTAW
In words: RSAT assay, alpha 2B receptor. To be noted: for Alpha 2B (IA) intrinsic activity: RSAT, ratio of maximal effect to that of standard agonist brimonidine. As for the experimental part:
(§1) The RSAT assay measures a receptor-mediated loss of contact inhibition that results in selective proliferation of receptor-containing cells in a mixed population of confluent cells. The increase in cell number is assessed with an appropriate transfected marker gene such as -galactosidase, the activity of which can be easily measured in a 96-well format. Receptors that activate the G protein, Gq, elicit this response. Alpha2 receptors, which normally couple to Gi, activate the RSAT response when coexpressed with a hybrid Gq protein that has a Gi receptor recognition domain, called Gq/i5.
NIH-3T3 cells are plated at a density of 2×10^6 cells in 15 cm dishes and maintained in Dulbecco's modified Eagle's medium supplemented with 10% calf serum. One day later, cells are cotransfected by calcium phosphate precipitation with mammalian expression plasmids encoding p-SV-1-galactosidase (5-10 μg), receptor (1-2 μg) and G protein (1-2 μg). 40 μg salmon sperm DNA may also be included in the transfection mixture. Fresh media is added on the following day and 1-2 days later, cells are harvested and frozen in 50 assay aliquots. Cells are thawed and 100 μl added to 100 μl aliquots of various concentrations of drugs in triplicate in 96-well dishes. Incubations continue 72-96 hr at 37° C. After washing with phosphate-buffered saline, β-galactosidase enzyme activity is determined by adding 200 μl of the chromogenic substrate (consisting of 3.5 mM o-nitrophenyl-β-D-galactopyranoside and 0.5% nonidet P-40 in phosphate buffered saline), incubating overnight at 30° C. and measuring optical density at 420 nm. The absorbance is a measure of enzyme activity, which depends on cell number and reflects a receptor-mediated cell proliferation. The efficacy or intrinsic activity is calculated as a ratio of the maximal effect of the drug to the maximal effect of a standard full agonist for each receptor subtype. Brimonidine, also called UK14304, the chemical structure of which is shown below, is used as the standard agonist for the alpha2A, alpha2B and alpha2C receptors. The EC50 is the concentration at which the drug effect is half of its maximal effect.
EC50 values are nanomolar. NA stands for “not active” at concentrations less than 10 micromolar. IA stands for “intrinsic activity.”

Another assay has as its target T2, Alpha 2C (Homo sapiens, UniProt P18825).
T2 construct: expressed in transfected cells; host or cells: NIH-3T3
T2 sequence (P18825 1-462): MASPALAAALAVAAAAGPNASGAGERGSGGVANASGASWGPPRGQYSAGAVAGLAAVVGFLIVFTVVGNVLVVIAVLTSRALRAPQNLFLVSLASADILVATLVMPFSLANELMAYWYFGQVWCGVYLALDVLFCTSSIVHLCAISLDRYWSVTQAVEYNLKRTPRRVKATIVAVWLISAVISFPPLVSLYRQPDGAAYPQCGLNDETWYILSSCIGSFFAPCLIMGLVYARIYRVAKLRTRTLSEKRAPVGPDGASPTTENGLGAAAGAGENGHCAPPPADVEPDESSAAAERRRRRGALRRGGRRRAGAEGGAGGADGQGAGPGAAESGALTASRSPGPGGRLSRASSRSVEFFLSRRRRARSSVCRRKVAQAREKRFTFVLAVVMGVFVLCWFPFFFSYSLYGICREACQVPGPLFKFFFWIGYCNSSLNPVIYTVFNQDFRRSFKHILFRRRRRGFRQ
Kind of assay: RSAT assay, alpha 2C receptor. As for the experimental part:
as §1
(§2) NIH-3T3 cells are plated at a density of 2×10^6 cells in 15 cm dishes and maintained in Dulbecco's modified Eagle's medium supplemented with 10% calf serum. […] After washing with phosphate-buffered saline, β-galactosidase enzyme activity is determined by adding 200 μl of the chromogenic substrate (consisting of 3.5 mM o-nitrophenyl-β-D-galactopyranoside and 0.5% nonidet P-40 in phosphate buffered saline), incubating overnight at 30° C. and measuring optical density at 420 nm. The absorbance is a measure of enzyme activity, which depends on cell number and reflects a receptor-mediated cell proliferation. The efficacy or intrinsic activity is calculated as a ratio of the maximal effect of the drug to the maximal effect of a standard full agonist for each receptor subtype. […]

A further assay addresses T3, Alpha 2A (Homo sapiens, UniProt P08913).
T3 construct: expressed in transfected cells; host or cells: NIH-3T3
T3 sequence (P08913 1-465): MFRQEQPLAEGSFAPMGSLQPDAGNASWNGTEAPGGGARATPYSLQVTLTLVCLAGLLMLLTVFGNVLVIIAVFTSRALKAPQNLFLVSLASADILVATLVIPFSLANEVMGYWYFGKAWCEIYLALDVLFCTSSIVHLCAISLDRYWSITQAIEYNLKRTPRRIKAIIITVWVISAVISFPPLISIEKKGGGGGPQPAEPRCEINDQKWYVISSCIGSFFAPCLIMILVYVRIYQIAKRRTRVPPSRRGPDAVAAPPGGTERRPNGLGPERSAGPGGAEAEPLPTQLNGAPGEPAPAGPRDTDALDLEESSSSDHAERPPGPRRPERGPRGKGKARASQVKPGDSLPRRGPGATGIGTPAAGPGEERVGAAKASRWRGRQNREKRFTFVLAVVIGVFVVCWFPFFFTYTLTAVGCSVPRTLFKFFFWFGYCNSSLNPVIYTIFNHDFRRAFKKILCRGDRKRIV
In words: RSAT assay, alpha 2A receptor. To be noted: ratio of maximal effect to that of standard agonist brimonidine. The method, then:
as §1, §2

The next assay concerns the target T4, Alpha 1A (Homo sapiens, UniProt P35348).
T4 construct: expressed in transfected cells; host or cells: NIH-3T3
T4 sequence (P35348 1-466): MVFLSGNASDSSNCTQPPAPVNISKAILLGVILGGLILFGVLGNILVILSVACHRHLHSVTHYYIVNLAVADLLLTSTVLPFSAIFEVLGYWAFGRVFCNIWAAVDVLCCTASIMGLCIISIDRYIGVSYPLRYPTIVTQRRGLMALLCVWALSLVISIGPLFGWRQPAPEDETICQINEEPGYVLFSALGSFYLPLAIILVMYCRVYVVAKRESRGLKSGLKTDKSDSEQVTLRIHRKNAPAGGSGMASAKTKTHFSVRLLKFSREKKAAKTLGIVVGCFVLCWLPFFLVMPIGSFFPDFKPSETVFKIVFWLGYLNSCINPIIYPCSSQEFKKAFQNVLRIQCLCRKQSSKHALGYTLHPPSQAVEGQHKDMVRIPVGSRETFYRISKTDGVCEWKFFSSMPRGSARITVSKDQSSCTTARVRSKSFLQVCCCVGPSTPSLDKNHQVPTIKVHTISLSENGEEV
In words: RSAT assay, alpha 1A receptor. As for the experimental part:
as §1, §2

We go through three molecules from patent publication US20090286829A1, “QUINOLYNYLMETHYLIMIDIZOLES AS THERAPEUTIC AGENTS” (ALLERGAN, INC., priority 2008, published 2009).

In general, EC50 refers to the concentration that produces a half-maximal response. High values mean a less potent agent, low ones a more potent agent. Consider `Cc1[nH]cnc1C(C)c1cccc2cccnc12` (stereo not drawn) [8-(1-(5-methyl-1H-imidazol-4-yl)ethyl)quinoline], for which the EC50 on Alpha 2B turned out to be 30 nM; at Alpha 2C, 3110 nM. In addition, the “Alpha 2B (IA) intrinsic activity” value at Alpha 2B amounted to 0.70. Moreover, the “Alpha 2C (IA) intrinsic activity” value at Alpha 2C (RSAT, ratio of maximal effect to that of standard agonist brimonidine) is on record as 0.32.

Consider `Cc1[nH]cnc1Cc1ccc2cccnc2c1C` [8-methyl-7-((5-methyl-1H-imidazol-4-yl)methyl)quinoline], for which the “Alpha 2A (IA) intrinsic activity” value on Alpha 2A was determined as 0.43.

For the molecule `Cc1[nH]cnc1Cc1cccc2cccnc12` [8-((5-methyl-1H-imidazol-4-yl)methyl)quinoline], the results for the EC50 on Alpha 1A and at Alpha 2B were 1730 nM and 117 nM, respectively. Also, at Alpha 1A (RSAT, ratio of maximal effect of drug to maximal effect of standard full agonist), the “Alpha 1A (IA) intrinsic activity” value is given as 0.75. For the same molecule, the “Alpha 2B (IA) intrinsic activity” value on Alpha 2B came to 0.70.
